Key:
[1] = tested on: human fibroblasts; experiment: Collagen synthesis / collagen proliferation performance (3H-proline incorporation, RCB); type: cell-based; details: for collagen proliferation, result in words (Table 2, FIG. 4): concentrations 10^−6 to 10^−4
Protocol: In order to determine degree of collagen synthesis, human fibroblasts were cultured in a 24-well microtiter plate. The same sample as used for cell proliferation was diluted in a rate of 1/10 in a culture medium and the diluted sample was added to the cultured fibroblasts. The samples used herein were vitamin C, genistein, cyclodextrin, and the inclusion-complexes prepared in Examples 1 and 2.
At 3 days after culture, 0.5 ml of 10% FBS containing DMEM medium was added to each well, followed by adding 10 μCi of L[2,3,4,5-3H]-proline thereto. After 24 hours, the medium and the cells were collected from the well and fed into a 5% trichloroacetic acid (TCA) solution to rinse the product. The rinsed product was plated in two test tubes. 1 unit/μl of Type I collagenase was added to one of the test tubes and cultured at 37° C. for 90 minutes, while the other test tube was stored at 4° C.
After that, adding 0.05 ml of 50% TCA to both the test tubes and leaving the same at 4° C. for 20 minutes, each of the test tubes was subjected to centrifugation at 12,000 rpm for 10 minutes. The resultant supernatant and precipitate were detected using a liquid scintillation counter (LSC) to measure decay per minute (dpm) values. The measured dpm values were used to calculate relative collagen biosynthesis (RCB) values according to the following equation 1: RCB=collagen dpm value/{[([…])×5.4]+collagen dpm value}×100 Equation 1

[2] = tested on: human fibroblasts; experiment: Fibroblast proliferation performance (MTT); type: cell-based; details: 4 days culture
Protocol: In order to evaluate cell proliferation performance of the inclusion-complex according to the present invention, fibroblast proliferation performance was determined.
More particularly, human fibroblasts were cultured in Dulbecco s Modified Eagle's medium (DMEM) containing 2.5% fetal bovine serum (FBS) and the cultured cells were plated in a 96-well microtiter plate at 5,000 cells/well.
Each of the inclusion-complex produced in Example 1 (an inclusion-complex of β-cyclodextrin/geniste with a genistein concentration of 5%), the inclusion-complex produced in Example 2 (an inclusion-complex of hydroxypropyl β-cyclodextrin/genistein with a genistein concentration of 5%) was used as a test sample. On the other hand, genistein, retinol and tocopherol, hydroxypropyl β-cyclodextrin and β-cyclodextrin, respectively, were used as controls. Each of the samples was regulated to have a final concentration of 1 mg/ml and added to the fibroblasts, followed by additional culturing of the fibroblasts for 4 days.
After completing the culture, 50 μl of 0.2% MTT (3-[4,5-dimethylthiazol-2-yl]-2,5-diphenyltetrazolium bromide) solution was added to each well, and then, cultured at 37° C. for 4 hours. The obtained formazan was dissolved in dimethyl sulfoxide (DMSO). The formazan solution was subjected to determination of absorption at 570 nm using a microplate reader.

Compound	Collagen proliferation rate ([1]; concentration 10^−4) [%]	Collagen proliferation rate ([1]; concentration 10^−5) [%]	Collagen proliferation rate ([1]; concentration 10^−6) [%]	collagen proliferation, result in words (Table 2, FIG. 4) [1]	cell viability dependent on concentration (FIG. 2) [2]
OC[C@H]1O[C@@H]2O[C@H]3[C@H](O)[C@@H](O)[C@@H](O[C@H]4[C@H](O)[C@@H](O)[C@@H](O[C@H]5[C@H](O)[C@@H](O)[C@@H](O[C@H]6[C@H](O)[C@@H](O)[C@@H](O[C@H]7[C@H](O)[C@@H](O)[C@@H](O[C@H]8[C@H](O)[C@@H](O)[C@@H](O[C@H]1[C@H](O)[C@H]2O)O[C@@H]8CO)O[C@@H]7CO)O[C@@H]6CO)O[C@@H]5CO)O[C@@H]4CO)O[C@@H]3CO [Cyclodextrin, β-cyclodextrin]	102	101	102	not greatly improved	
O=c1c(-c2ccc(O)cc2)coc2cc(O)cc(O)c12 [Genistein]	115	112	105	more excellent effects with increased concentration	increased somewhat in proportion to concentration
O=C1O[C@H]([C@@H](O)CO)C(O)=C1O [Vitamin C]	98	105	106	decreased as its concentration increased	
CC1=C(/C=C/C(C)=C/C=C/C(C)=C/CO)C(C)(C)CCC1 [retinol]					increased somewhat in proportion to concentration
hydroxypropyl β-cyclodextrin	104	104	101	not greatly improved	
tocopherol					increased somewhat in proportion to concentration

— patent US8658692B2, “Method of preparation an inclusion-complex comprising hydrophobic physiological activation material including with cyclodextrin and its use” (Macrocare Tech., Ltd., priority 2007, dated 2014)
